{"source": "PubChem BioAssay (NCI)", "experiment_in_all_cases": "DTP human tumour cell line panel, 48 h", "key": {"MDA-MB-231 breast": {"tested_on": "MDA-MB-231 breast"}, "COLO 205 colon": {"tested_on": "COLO 205 colon"}, "MOLT-4 leukemia": {"tested_on": "MOLT-4 leukemia"}, "HCT-116 colon": {"tested_on": "HCT-116 colon"}, "OVCAR-3 ovarian": {"tested_on": "OVCAR-3 ovarian"}, "HCC-2998 colon": {"tested_on": "HCC-2998 colon"}, "HS 578T breast": {"tested_on": "HS 578T breast"}, "NCI-H23 lung": {"tested_on": "NCI-H23 lung"}, "BT-549 breast": {"tested_on": "BT-549 breast"}, "SNB-75 CNS": {"tested_on": "SNB-75 CNS"}, "SF-295 CNS": {"tested_on": "SF-295 CNS"}, "SK-MEL-2 melanoma": {"tested_on": "SK-MEL-2 melanoma"}, "MDA-MB-435": {"tested_on": "MDA-MB-435"}, "HOP-62 NSCLC": {"tested_on": "HOP-62 NSCLC"}, "SF-268 CNS": {"tested_on": "SF-268 CNS"}, "OVCAR-4 ovarian": {"tested_on": "OVCAR-4 ovarian"}, "DU-145 prostate": {"tested_on": "DU-145 prostate"}, "T-47D breast": {"tested_on": "T-47D breast"}, "A498 renal": {"tested_on": "A498 renal"}, "NCI/ADR-RES ovarian": {"tested_on": "NCI/ADR-RES ovarian"}, "SK-MEL-5 melanoma": {"tested_on": "SK-MEL-5 melanoma"}, "EKVX NSCLC": {"tested_on": "EKVX NSCLC"}, "SR leukemia": {"tested_on": "SR leukemia"}, "A549 NSCLC": {"tested_on": "A549 NSCLC"}, "786-0 renal": {"tested_on": "786-0 renal"}, "HOP-92 NSCLC": {"tested_on": "HOP-92 NSCLC"}, "UACC-62 melanoma": {"tested_on": "UACC-62 melanoma"}, "UACC-257 melanoma": {"tested_on": "UACC-257 melanoma"}}, "note": "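Assay format: 96-well plates, 48-hour exposure. GI50 = concentration required for 50% inhibition of growth. TGI marks complete inhibition of growth.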"}
{"smiles": "COc1ncc(-c2nc3c(n2C(C)C)[C@H](c2ccc(Cl)cc2)N(c2cc(Cl)cn(C)c2=O)C3=O)c(OC)n1", "values": [{"measurement": "GI50", "setting": "MDA-MB-231 breast", "result": 29.6, "unit": "µM"}, {"measurement": "TGI", "setting": "MDA-MB-231 breast", "result": "> 100", "unit": "µM"}, {"measurement": "GI50", "setting": "COLO 205 colon", "result": 36.9, "unit": "µM"}, {"measurement": "TGI", "setting": "COLO 205 colon", "result": "> 100", "unit": "µM"}, {"measurement": "GI50", "setting": "MOLT-4 leukemia", "result": 12.4, "unit": "µM"}, {"measurement": "TGI", "setting": "MOLT-4 leukemia", "result": 39.6, "unit": "µM"}, {"measurement": "GI50", "setting": "HCT-116 colon", "result": 22, "unit": "µM"}, {"measurement": "TGI", "setting": "HCT-116 colon", "result": "> 100", "unit": "µM"}, {"measurement": "GI50", "setting": "OVCAR-3 ovarian", "result": 46, "unit": "µM"}, {"measurement": "TGI", "setting": "OVCAR-3 ovarian", "result": "> 100", "unit": "µM"}, {"measurement": "GI50", "setting": "HCC-2998 colon", "result": 60.1, "unit": "µM"}, {"measurement": "TGI", "setting": "HCC-2998 colon", "result": "> 100", "unit": "µM"}, {"measurement": "GI50", "setting": "HS 578T breast", "result": 32.6, "unit": "µM"}, {"measurement": "TGI", "setting": "HS 578T breast", "result": "> 100", "unit": "µM"}, {"measurement": "GI50", "setting": "NCI-H23 lung", "result": "> 100", "unit": "µM"}, {"measurement": "TGI", "setting": "NCI-H23 lung", "result": "> 100", "unit": "µM"}, {"measurement": "GI50", "setting": "BT-549 breast", "result": 36.7, "unit": "µM"}, {"measurement": "TGI", "setting": "BT-549 breast", "result": "> 100", "unit": "µM"}, {"measurement": "GI50", "setting": "SNB-75 CNS", "result": 30, "unit": "µM"}, {"measurement": "TGI", "setting": "SNB-75 CNS", "result": "> 100", "unit": "µM"}, {"measurement": "GI50", "setting": "SF-295 CNS", "result": 36.8, "unit": "µM"}, {"measurement": "TGI", "setting": "SF-295 CNS", "result": "> 100", "unit": "µM"}, {"measurement": "GI50", "setting": "SK-MEL-2 melanoma", "result": 46.3, "unit": "µM"}, {"measurement": "TGI", "setting": "SK-MEL-2 melanoma", "result": "> 100", "unit": "µM"}, {"measurement": "GI50", "setting": "MDA-MB-435", "result": 35.3, "unit": "µM"}, {"measurement": "TGI", "setting": "MDA-MB-435", "result": "> 100", "unit": "µM"}, {"measurement": "GI50", "setting": "HOP-62 NSCLC", "result": 90, "unit": "µM"}, {"measurement": "TGI", "setting": "HOP-62 NSCLC", "result": "> 100", "unit": "µM"}, {"measurement": "GI50", "setting": "SF-268 CNS", "result": 71.5, "unit": "µM"}, {"measurement": "TGI", "setting": "SF-268 CNS", "result": "> 100", "unit": "µM"}, {"measurement": "GI50", "setting": "OVCAR-4 ovarian", "result": 29.2, "unit": "µM"}, {"measurement": "TGI", "setting": "OVCAR-4 ovarian", "result": "> 100", "unit": "µM"}, {"measurement": "GI50", "setting": "DU-145 prostate", "result": 94.8, "unit": "µM"}, {"measurement": "TGI", "setting": "DU-145 prostate", "result": "> 100", "unit": "µM"}, {"measurement": "GI50", "setting": "T-47D breast", "result": 29.5, "unit": "µM"}, {"measurement": "TGI", "setting": "T-47D breast", "result": "> 100", "unit": "µM"}, {"measurement": "GI50", "setting": "A498 renal", "result": 19.2, "unit": "µM"}, {"measurement": "TGI", "setting": "A498 renal", "result": 84.6, "unit": "µM"}, {"measurement": "GI50", "setting": "NCI/ADR-RES ovarian", "result": 44, "unit": "µM"}, {"measurement": "TGI", "setting": "NCI/ADR-RES ovarian", "result": "> 100", "unit": "µM"}, {"measurement": "GI50", "setting": "SK-MEL-5 melanoma", "result": 11.7, "unit": "µM"}, {"measurement": "TGI", "setting": "SK-MEL-5 melanoma", "result": 24.1, "unit": "µM"}, {"measurement": "GI50", "setting": "EKVX NSCLC", "result": 36.6, "unit": "µM"}, {"measurement": "TGI", "setting": "EKVX NSCLC", "result": "> 100", "unit": "µM"}, {"measurement": "GI50", "setting": "SR leukemia", "result": 6.14, "unit": "µM"}, {"measurement": "TGI", "setting": "SR leukemia", "result": 77.1, "unit": "µM"}, {"measurement": "GI50", "setting": "A549 NSCLC", "result": 17.9, "unit": "µM"}, {"measurement": "TGI", "setting": "A549 NSCLC", "result": "> 100", "unit": "µM"}, {"measurement": "GI50", "setting": "786-0 renal", "result": 67.5, "unit": "µM"}, {"measurement": "TGI", "setting": "786-0 renal", "result": "> 100", "unit": "µM"}, {"measurement": "GI50", "setting": "HOP-92 NSCLC", "result": 3.28, "unit": "µM"}, {"measurement": "TGI", "setting": "HOP-92 NSCLC", "result": 52.6, "unit": "µM"}, {"measurement": "GI50", "setting": "UACC-62 melanoma", "result": 5.95, "unit": "µM"}, {"measurement": "TGI", "setting": "UACC-62 melanoma", "result": 28.4, "unit": "µM"}, {"measurement": "GI50", "setting": "UACC-257 melanoma", "result": 17.2, "unit": "µM"}, {"measurement": "TGI", "setting": "UACC-257 melanoma", "result": 94.4, "unit": "µM"}]}
